We go through one molecule from patent US20060079696A1, “Substituted compounds derived from N-(benzyl)phenylacetamide, preparation and uses” (GENFIT, priority 2004, published 2006).

One test concerns Male Sprague-Dawley rats. The test is described as follows: Glycemia and insulinemia after oral administration in fasted rats. The class given is in vivo, rat. The note with it: oral, fasted rat. The text has this: In normal animals (as in man), the consequence of the administration of insulinotropic compounds is a significant increase in the plasmatic level of insulin. This induced hyperinsulinemia induces a reduction in glycemia. This example studies the evolution of glycemia and of insulinemia following oral administration of the inventive compounds in rats: the insulinotropic action of the compounds in vivo should induce a significant decrease of glycemia.
Male Sprague-Dawley rats (300-320 g) (CERJ—Le Genest St Isle-France) were used in order to carry out this experiment. The rats were fed with a standard diet of granular material; they had free access to food and drink and were kept in individual, ventilated cages in a 12 hr/12 hr light/dark rhythm. The animals were deprived of food for 16 hours prior to the experiment.
The compound was suspended in an aqueous carboxymethylcellulose solution (Sigma C4888) at 1% containing 0.1% Tween80 (Sigma P8074). The animals of the control group received the vehicle alone. The treated animals received a single administration of the compound (the suspension was administered by gavage at the rate of 10 ml/kg). Each group was made up of 11 animals. A 1st blood sample was taken by puncturing the retro-orbital sinus of the animals under volatile isoflurane anaesthesia: this sample makes up the initial time of the experiment. The substance or the vehicle were immediately administered to the animals by gavage, and blood samples were taken over time.
The animals' glycemia was measured in real time using a glucometer (Glucotrend2-Roche Diagnostic-France). The insulinemias were measured using an ELISA kit (Insulin Elisa Kit—Crystal Chem. USA). The method used was of the ELISA type: plasmatic insulin was specifically bound to anti-insulin monoclonal antibodies immobilised on the microtitration plate; simultaneously, an anti-insulin polyclonal guinea pig antibody was added to the reaction. The revelation of the reaction was guaranteed by an antibody coupled to peroxidase. These antibodies bind specifically to the guinea pig's immunoglobulins. The production of oxidised chromogen causes an increase in absorbance in proportion to the quantity of insulin present in the sample.

In a further test the target is T1, hPPARγ (Homo sapiens, UniProt P37231).
T1 construct: fragments of DNA amplified by PCR corresponding to the DEF domains of the human PPARα, PPARγ PPARδ nuclear receptors; expressed in transfected cells; host or cells: COS-7 (monkey kidney fibroblast line)
T1 sequence (P37231 238-503 limits assumed): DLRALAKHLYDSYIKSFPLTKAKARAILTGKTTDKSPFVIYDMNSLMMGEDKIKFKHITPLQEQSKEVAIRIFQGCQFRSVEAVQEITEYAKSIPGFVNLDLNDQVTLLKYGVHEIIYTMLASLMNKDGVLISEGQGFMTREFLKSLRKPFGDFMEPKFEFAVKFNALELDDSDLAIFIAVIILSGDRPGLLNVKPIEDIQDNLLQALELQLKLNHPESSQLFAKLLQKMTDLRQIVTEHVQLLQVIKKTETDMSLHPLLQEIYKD
The test is described as follows: Gal4-hPPARγ chimera transactivation in COS-7 cells (luciferase). The class given is cell-based. As to conditions: induction factor standardised to an internal reference, read-out: % hGal4-PPAR transactivation (10 μM) gamma. In outline:
(§1)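 COS-7 cells transiently transfected with Gal4-DBD/human PPAR DEF-domain chimeras plus Gal4(RE)_TkpGL3 luciferase reporter (1/10 ratio), then exposed 24 h serum-free to compound at 10 μM. Luciferase induction factor over control, normalised to an internal reference per isoform, expressed as percent activation.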

The next test has as its target T2, hPPARδ (Homo sapiens, UniProt Q03181).
T2 construct: fragments of DNA amplified by PCR corresponding to the DEF domains of the human PPARα, PPARγ PPARδ nuclear receptors; expressed in transfected cells; host or cells: COS-7 (monkey kidney fibroblast line)
T2 sequence (Q03181 211-439 limits assumed): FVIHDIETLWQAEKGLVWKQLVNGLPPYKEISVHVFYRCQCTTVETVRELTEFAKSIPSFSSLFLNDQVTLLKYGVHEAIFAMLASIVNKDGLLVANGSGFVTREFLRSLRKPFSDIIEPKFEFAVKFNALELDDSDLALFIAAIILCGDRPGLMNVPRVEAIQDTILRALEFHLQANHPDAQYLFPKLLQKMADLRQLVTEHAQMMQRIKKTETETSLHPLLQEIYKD
In words: Gal4-hPPARδ chimera transactivation in COS-7 cells (luciferase). The class given is cell-based. The note with it: induction factor standardised to an internal reference, read-out: % hGal4-PPAR transactivation (10 μM) delta. In short, it runs like this:
as §1

As for `CCCCC(NC(=O)Cc1ccc(OC(C)(C)C(=O)NS(C)(=O)=O)cc1)c1ccccc1N1CCCCC1` (stereo not shown) [Compound 52, N-[methylsulfonyl]-2-[4-[1-(1-(2-(1-piperidinyl)phenyl)pentyl)aminocarbonylmethyl]phenoxy]-2-methylpropanamide], the “decrease in glycemia between T=0 and T=120 min” value is listed as “no measurable effect” in the test with Male Sprague-Dawley rats (50 mpk) and 19% in the test on Male Sprague-Dawley rats (500 mpk). The activation at 10 µM on hPPARγ and at hPPARδ was below 10% throughout.
